Test results taken from PubChem BioAssay AID1845194 (Molecular Pharmacology Branch, DTP, NCI, 2023).

Test system: 287954-098-R-J1 tumor spheroid viability
Assay: Anticancer human tumor 287954-098-R-J1 patient-derived Ewing sarcoma cell line growth inhibition
Conditions: spheroids with HUVEC and MSC; for IC50: curve of first compound; for viability, T/C: stronger effect = lower value
Method in brief: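 Single agents and combinations were tested on spheroids built from tumor cells plus HUVEC and hMSC, at half-log dilutions starting at or near clinical Cmax, else 10 microM; final DMSO 0.25% (v/v).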

[1] = second compound 0.003 µM, first compound 0.0316 µM
[2] = second compound 0.003 µM, first compound 0.1 µM
[3] = second compound 0.003 µM, first compound 0.316 µM
[4] = second compound 0.003 µM, first compound 1 µM
[5] = second compound 0.003 µM, first compound 3.16 µM
[6] = second compound 0.003 µM, first compound 10 µM
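Also: spheroids exposed to compound for 7 days before viability readout.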
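For viability, T/C in this document: luminescent signal taken as surrogate of viable cell content; 100% = DMSO vehicle control viability and lower means growth inhibition.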

`Cn1ncnc1[C@H]1c2n[nH]c(=O)c3cc(F)cc(c23)N[C@@H]1c1ccc(F)cc1` + COc1cc2c(cc1O)CCNC21CSC2c3c(OC(C)=O)c(C)c4c(c3C(COC1=O)N1C(O)C3Cc5cc(C)c(OC)c(O)c5C(C21)N3C)OCO4 showed an IC50 (second compound 30 pM) of 575 nM, an IC50 (second compound 94.9 pM) of 477 nM and an IC50 (second compound 0.0003 µM) of 39 nM. For the same molecule, the IC50 (second compound 0.000949 µM) was < 9.49 nM, the IC50 (second compound 0.003 µM) was < 9.49 nM and the viability, T/C (second compound 30 pM, first compound 0.00949 µM) was 99%. The viability, T/C (second compound 30 pM, first compound 0.03 µM) was 111%, the viability, T/C (second compound 30 pM, first compound 0.0949 µM) was 102% and the viability, T/C (second compound 30 pM, first compound 0.3 µM) was 97.6%. It also gave a viability, T/C (second compound 30 pM, first compound 0.949 µM) of 13.3%, a viability, T/C (second compound 30 pM, first compound 3 µM) of 1.27% and a viability, T/C (second compound 94.9 pM, first compound 0.00949 µM) of 107%. For the same molecule, the viability, T/C (second compound 94.9 pM, first compound 0.03 µM) was 104%, the viability, T/C (second compound 94.9 pM, first compound 0.0949 µM) was 106% and the viability, T/C (second compound 94.9 pM, first compound 0.3 µM) was 82.7%. It also gave a viability, T/C (second compound 94.9 pM, first compound 0.949 µM) of 1.42%, a viability, T/C (second compound 94.9 pM, first compound 3 µM) of 1.02% and a viability, T/C (second compound 0.0003 µM, first compound 0.00949 µM) of 81.8%. It also gave a viability, T/C (second compound 0.0003 µM, first compound 0.03 µM) of 63%, a viability, T/C (second compound 0.0003 µM, first compound 0.0949 µM) of 6% and a viability, T/C (second compound 0.0003 µM, first compound 0.3 µM) of 1.31%. The viability, T/C (second compound 0.0003 µM, first compound 0.949 µM) was 0.92%, the viability, T/C (second compound 0.0003 µM, first compound 3 µM) was 0.91% and the viability, T/C (second compound 0.000949 µM, first compound 0.00949 µM) was 0.31%. It also gave a viability, T/C (second compound 0.000949 µM, first compound 0.03 µM) of 0.21%, a viability, T/C (second compound 0.000949 µM, first compound 0.0949 µM) of 0.23% and a viability, T/C (second compound 0.000949 µM, first compound 0.3 µM) of 0.13%. For the same molecule, the viability, T/C (second compound 0.000949 µM, first compound 0.949 µM) was 0.04%, the viability, T/C (second compound 0.000949 µM, first compound 3 µM) was 0.12% and the viability, T/C (second compound 0.003 µM, first compound 0.00949 µM) was 0.16%. The viability, T/C (second compound 0.003 µM, first compound 0.03 µM) was 0.17%, the viability, T/C (second compound 0.003 µM, first compound 0.0949 µM) was 0.13% and the viability, T/C (second compound 0.003 µM, first compound 0.3 µM) was 0.12%. It also gave a viability, T/C (second compound 0.003 µM, first compound 0.949 µM) of 0.12% and a viability, T/C (second compound 0.003 µM, first compound 3 µM) of 0.2%.

In the case of `COc1cc(C)[nH]c(=O)c1CN1CCc2c(Cl)cc(C(OC)C3COC3)c(Cl)c2C1=O` (stereo not given) + COc1cc2c(cc1O)CCNC21CSC2c3c(OC(C)=O)c(C)c4c(c3C(COC1=O)N1C(O)C3Cc5cc(C)c(OC)c(O)c5C(C21)N3C)OCO4, the IC50 (second compound 30 pM) is reported as > 10000 nM, the IC50 (second compound 94.9 pM) is reported as > 10000 nM and the IC50 (second compound 0.0003 µM) is reported as > 10000 nM. For the same molecule, the IC50 (second compound 0.000949 µM) was < 31.6 nM, the IC50 (second compound 0.003 µM) was < 31.6 nM and the viability, T/C (second compound 30 pM, first compound 0.0316 µM) was 96.5%. For the same molecule, the viability, T/C (second compound 30 pM, first compound 0.1 µM) was 94.2%, the viability, T/C (second compound 30 pM, first compound 0.316 µM) was 87.3% and the viability, T/C (second compound 30 pM, first compound 1 µM) was 92.8%. The viability, T/C (second compound 30 pM, first compound 3.16 µM) was 104%, the viability, T/C (second compound 30 pM, first compound 10 µM) was 89.9% and the viability, T/C (second compound 94.9 pM, first compound 0.0316 µM) was 108%. It also gave a viability, T/C (second compound 94.9 pM, first compound 0.1 µM) of 101%, a viability, T/C (second compound 94.9 pM, first compound 0.316 µM) of 94.5% and a viability, T/C (second compound 94.9 pM, first compound 1 µM) of 94.1%. For the same molecule, the viability, T/C (second compound 94.9 pM, first compound 3.16 µM) was 91.3%, the viability, T/C (second compound 94.9 pM, first compound 10 µM) was 94.1% and the viability, T/C (second compound 0.0003 µM, first compound 0.0316 µM) was 104%. For the same molecule, the viability, T/C (second compound 0.0003 µM, first compound 0.1 µM) was 102%, the viability, T/C (second compound 0.0003 µM, first compound 0.316 µM) was 92.1% and the viability, T/C (second compound 0.0003 µM, first compound 1 µM) was 95.5%. It also gave a viability, T/C (second compound 0.0003 µM, first compound 3.16 µM) of 90.9%, a viability, T/C (second compound 0.0003 µM, first compound 10 µM) of 87.9% and a viability, T/C (second compound 0.000949 µM, first compound 0.0316 µM) of 0.52%. The viability, T/C (second compound 0.000949 µM, first compound 0.1 µM) was 0.35%, the viability, T/C (second compound 0.000949 µM, first compound 0.316 µM) was 0.34% and the viability, T/C (second compound 0.000949 µM, first compound 1 µM) was 0.36%. It also gave a viability, T/C (second compound 0.000949 µM, first compound 3.16 µM) of 0.25%, a viability, T/C (second compound 0.000949 µM, first compound 10 µM) of 0.33% and a viability, T/C [1] of 0.25%. It also gave a viability, T/C [2] of 0.27%, a viability, T/C [3] of 0.22% and a viability, T/C [4] of 0.16%. For the same molecule, the viability, T/C [5] was 0.16% and the viability, T/C [6] was 0.25%.

With `COc1ccc([C@@H](O)c2cc(-c3ncnc4cc(N5CCOCC5)ccc34)c(F)cc2Cl)nn1` + CC[C@@]1(O)C(=O)OCc2c1cc1n(c2=O)Cc2cc3c(CN(C)C)c(O)ccc3nc2-1 the IC50 (second compound 0.003 µM) was > 10000 nM, the IC50 (second compound 0.00949 µM) was > 10000 nM and the IC50 (second compound 0.03 µM) was < 31.6 nM. For the same molecule, the IC50 (second compound 0.0949 µM) was < 31.6 nM, the IC50 (second compound 0.3 µM) was < 31.6 nM and the viability, T/C [1] was 91.5%. For the same molecule, the viability, T/C [2] was 97.4%, the viability, T/C [3] was 95.8% and the viability, T/C [4] was 105%. For the same molecule, the viability, T/C [5] was 96.5%, the viability, T/C [6] was 83.9% and the viability, T/C (second compound 0.00949 µM, first compound 0.0316 µM) was 94.3%. The viability, T/C (second compound 0.00949 µM, first compound 0.1 µM) was 94.1%, the viability, T/C (second compound 0.00949 µM, first compound 0.316 µM) was 100% and the viability, T/C (second compound 0.00949 µM, first compound 1 µM) was 92.1%. For the same molecule, the viability, T/C (second compound 0.00949 µM, first compound 3.16 µM) was 93.2%, the viability, T/C (second compound 0.00949 µM, first compound 10 µM) was 54.9% and the viability, T/C (second compound 0.03 µM, first compound 0.0316 µM) was 21.7%. The viability, T/C (second compound 0.03 µM, first compound 0.1 µM) was 24.2%, the viability, T/C (second compound 0.03 µM, first compound 0.316 µM) was 11.3% and the viability, T/C (second compound 0.03 µM, first compound 1 µM) was 5.39%. The viability, T/C (second compound 0.03 µM, first compound 3.16 µM) was 0.97%, the viability, T/C (second compound 0.03 µM, first compound 10 µM) was 5.74% and the viability, T/C (second compound 0.0949 µM, first compound 0.0316 µM) was 1.23%. For the same molecule, the viability, T/C (second compound 0.0949 µM, first compound 0.1 µM) was 1.03%, the viability, T/C (second compound 0.0949 µM, first compound 0.316 µM) was 1.21% and the viability, T/C (second compound 0.0949 µM, first compound 1 µM) was 0.99%. For the same molecule, the viability, T/C (second compound 0.0949 µM, first compound 3.16 µM) was 0.52%, the viability, T/C (second compound 0.0949 µM, first compound 10 µM) was 0.59% and the viability, T/C (second compound 0.3 µM, first compound 0.0316 µM) was 1.41%. The viability, T/C (second compound 0.3 µM, first compound 0.1 µM) was 1.01%, the viability, T/C (second compound 0.3 µM, first compound 0.316 µM) was 1.15% and the viability, T/C (second compound 0.3 µM, first compound 1 µM) was 0.88%. For the same molecule, the viability, T/C (second compound 0.3 µM, first compound 3.16 µM) was 0.44% and the viability, T/C (second compound 0.3 µM, first compound 10 µM) was 0.41%.
